Source: US20130095059A1, “INHALED NO DONOR KMUPS DERIVATIVE PREVENTING ALLERGIC PULMONARY VASCULAR AND BRONCHIAL INFLAMMATION VIA SUPPRESSED CYTOKINES, INOS AND INFLAMMATORY CELL COUNTS IN ASTHMA MODEL” (priority 2007, published 2013)

How the values were obtained:
eNOS [1] = assay: Ovalbumine model, eNOS immunostaining in lung sections; set-up: species or system BALB/c mice; conditions: mouse, in vivo
Experimental: (§1) In this long-term experiment, 6-8 week old BALB/c female mice were sensitized on days 1 and 8 by intra-peritoneal injection (i.p.) of ovalbumine (10 μg) (Sigma-Aldrich, Schnelldorf, Germany) adsorbed to 2 mg aluminum hydroxide (AlumInject; Perbio, Erembodegem, Belgium). Mice were divided into three groups. In Group 1, a control group was only exposed to saline nebulization by aerosol. The other 2 groups were subjected to ovalbumine (1%) nebulization. Before each challenge with ovalbumine, mice were either exposed to saline nebulization (Group 2) or KMUP-1 nebulization (5 mM) for 30 min by aerosol (Group 3).
Immunohistochemical analysis of eNOS enhancement by KMUP-1 was performed as follows. The lungs were perfused with saline followed by 10% formalin and then placed in 10% formalin for paraffin embedding. The lung tissues were cut into […] sections onto slides, dewaxed in 100% xylene, and then re-hydrated in graded alcohol solutions. Throughout the procedures, slides were washed as appropriate in PBS. Antigen retrieval was performed by microwave treatment for eNOS immunostaining. Sections were treated with 3% H2O2 (10 min) to inhibit endogenous peroxidases and incubated with normal serum (60 min) to reduce nonspecific binding of secondary antibodies. Sections were then incubated at 4° C. overnight with eNOS antibodies. […]

5-HTT = assay: 5-HT-induced 5-HTT expression in PASMCs (Western blotting); format: cell-based, Wistar rats
Experimental: (§2) PASMCs were stimulated with 5-HT or not, as indicated. Cells were treated with KMUP-1 for 24 h before 5-HT stimulation. Whole lysates were collected and resolved by SDS-PAGE as previously described. Primary antibodies were anti-β-actin at: 1:10,000 dilution and anti-RhoA, anti-ROCK, antiphospho-ERK1/2, anti-phospho-AKT, anti-ERK1/2, anti-AKT, anti-5HTT, anti-5-HT2B and anti-eNOS at 1:1000. All blots were incubated with antibodies at 4° C. overnight. After being washed, the appropriate secondary antibodies were added at a dilution of 1:1000 for 1 h at room temperature. After extensive washing, blots were developed with a Super Signal enhanced chemiluminescence kit (Biorad, CA, USA) and visualized on Kodak AR film.
(§3) The expression of RhoA/ROCK and phosphorylation of ERK1/2 and AKT kinase in PASMCs were assessed by incubating the PASMCs with 5-HT (10 μM) for 15 min (peak time for RhoA/ROCK, ERK1/2 and AKT phosphorylation) and 5-HTT for 10 min (peak time for 5-HTT) after KMUP-1 (1-100 μM) was added to the culture of PASMCs for 24 h.

pulmonary artery rings = assay: Isometric force of 5-HT-constricted pulmonary artery rings; set-up: species or system Wistar rats
Experimental: Wistar rats were euthanized with an overdose of sodium pentobarbital (60 mg/kg, i.p.) before open-chest surgery. During surgery, a thoracic retractor was used to help isolate the pulmonary artery. […] The pulmonary artery ring preparations were stretched to a basal tension of 1 g and allowed to equilibrate for 60-90 min. After equilibration, pulmonary artery rings were constricted with 5-HT (10 μM) to prime the tissues and check the functionality of the endothelium (at least 80% relaxation in response to acetylcholine 1 μM). […] The effect of KMUP-1 on NOS and 5-HT was also studied in vessels pre-incubated with the NOS inhibitor L-NAME (100 μM) 20 min before 5-HT administration. The percentage of relaxation was estimated using the following equation: relaxation (%)=(maximal contraction−relaxation level)/(maximal contraction-basal level)×100. Data was obtained from serotonin-induced maximal contractile responses in pulmonary artery.

AKT = assay: 5-HT-induced AKT phosphorylation in PASMCs; format: cell-based, Wistar rats; conditions: 1-100 μM, 24 h pre-incubation
Experimental: as §2, §3

eNOS [2] = assay: Expression of eNOS in HPAEC; format: cell-based, human
Experimental: HPAEC purchased from ATCC were maintained in humidified incubator containing 5% CO2 at 37° C. HPAEC were cultured in F-12 supplemented with 10% fetal bovine serum. The culture medium was changed every 3 days and cells were subcultured until confluence. HPAEC were harvested with a solution of trypsin-EDTA (GIBCO BRL, NY, USA) while in a logarithmic phase of growth. HPAEC were used between passages 4-8.
To measure the expression of eNOS and 5-HT2B receptor in HPAEC after incubation with KMUP-1 (1-100 μM) for 24 h, whole lysates were collected for Western blotting assay. The relative density was determined using NIH imaging software.

IL-13 = assay: Ovalbumine model, plasma IL-13 (ELISA); format: in vivo, mice; conditions: mice sensitized and challenged by ovalbumine
Experimental: as §1

BALF cells = assay: Ovalbumine model, bronchoalveolar lavage cell counts; format: in vivo, BALB/c mice; conditions: 24 hrs after the last ovalbumine challenge; nebulization
Experimental: as §1
After the sacrifice of mice, a cannula was placed in the trachea for bronchoalveolar lavage by gentle manual aspiration, using cold PBS-EDTA (0.05 mM, 1 ml) (Calbiochem, Darmstadt, Germany) as previously described (Cataldo D D, et al., 2002). The broncho alveolar lavage fluid (BALF) was centrifuged at 4° C. for 10 min (1200 rpm). The supernatant was frozen at −80° C. for protein assessment and the cell pellet was resuspended in PBS-EDTA (0.05 mM, 1 ml). Total cell counts were performed manually using a thoma chamber. The differential cell counts were performed using morphologic criteria on cytocentrifuged preparations (Cytospin) after staining with Diff-Quick (Dade, Belgium). Differential cell counts were performed by one blinded observer unaware of the experimental treatment.

PASMCs = assay: Microculture tetrazolium test (MTT), PASMCs proliferation; format: cell-based, Wistar rats; conditions: 1-100 μM; 5-HT 10 μM 24 h
Experimental: At the end of this period, MTT (2 g/L) was added to each well, and incubation proceeded at 37° C. for 4 h. Thereafter, the medium was removed and the cells were solubilized in 150 μL DMSO.

ERK1/2 = assay: 5-HT-induced ERK1/2 phosphorylation in PASMCs; format: cell-based, Wistar rats; conditions: 1-100 μM, 24 h pre-incubation
Experimental: as §2, §3

`Cn1c(=O)c2c(ncn2CCN2CCN(c3ccccc3Cl)CC2)n(C)c1=O` [KMUP-1, 7-[2-[4-(2-chlorophenyl)piperazinyl]ethyl]-1,3-dimethylxanthine] was tested, and the “ovalbumine-decreased vascular eNOS-immunostaining in lung sections” value (eNOS [1]) was “prevented this decrease”, the “5-HT-induced expression of 5-HTT” value (5-HTT; 10 μM) was “inhibited” and the “5-HT-induced expression of 5-HTT” value (5-HTT; 1-100 μM, 24 h, then 5-HT 10 min) was “dose-dependently inhibited”. The “5-HT (10 μM) contractile response in pulmonary artery” value (pulmonary artery rings; 0.1-100 μM) was “inhibited”, the “maximum response of pulmonary artery to 5-HT” value (pulmonary artery rings; 10-100 μM, in the presence of L-NAME (100 μM)) was “reduced the maximum response” and the “5-HT-stimulated AKT phosphorylation” value (AKT) was “concentration-dependently reduced”. For the same compound, the “expression of eNOS compared to 5-HT treatment alone” value (eNOS [2]; 10 μM, 24 h before adding 5-HT) was “raised”, the “eNOS expression in cultured HPAEC” value (eNOS [2]; 1-100 μM, 24 h) was “dose-dependently increased” and the “IL-13 levels in the plasma” value (IL-13) was “inhibited”. For the same compound, the “increase in total cells, lymphocytes and eosinophils in the airway lumen” value (BALF cells) was “significantly reduced”, the “PASMCs proliferation (MTT assay)” value (PASMCs) was “dose-dependently inhibited” and the “5-HT-stimulated ERK1/2 phosphorylation” value (ERK1/2) was “concentration-dependently reduced”.
